We go through 14 molecules from patent publication US8329706B2, “Oxazolidinone derivatives” (Actelion Pharmaceuticals Ltd., priority 2009, dated 2012).

One assay has as its target T1, human orexin-1 receptor (Homo sapiens, UniProt O43613).
T1 construct: expressed in transfected cells; host or cells: CHO cells (G418 selection)
T1 sequence (O43613 1-425): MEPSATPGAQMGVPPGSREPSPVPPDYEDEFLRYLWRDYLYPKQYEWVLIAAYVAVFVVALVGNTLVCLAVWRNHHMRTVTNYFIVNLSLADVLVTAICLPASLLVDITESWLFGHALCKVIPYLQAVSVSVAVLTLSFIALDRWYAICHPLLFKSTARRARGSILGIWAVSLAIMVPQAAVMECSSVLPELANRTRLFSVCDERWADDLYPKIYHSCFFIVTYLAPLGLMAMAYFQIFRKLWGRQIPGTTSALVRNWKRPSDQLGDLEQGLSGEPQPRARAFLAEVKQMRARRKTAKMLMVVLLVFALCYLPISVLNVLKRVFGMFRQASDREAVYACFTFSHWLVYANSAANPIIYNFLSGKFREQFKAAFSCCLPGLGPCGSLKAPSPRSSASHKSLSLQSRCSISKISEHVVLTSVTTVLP
Put plainly: FLIPR intracellular calcium assay, orexin receptor antagonistic activity (OX1). In kind it is cell-based. Conditions: CHO cells expressing human orexin-1 receptor; agonist 3 nM orexin-A; normalized to on-plate reference; * geomean n = 5, *2 geomean n = 2. The protocol: (§1) The orexin receptor antagonistic activity of the compounds of formula (I) is determined in accordance with the following experimental method.
(§2) Chinese hamster ovary (CHO) cells expressing the human orexin-1 receptor and the human orexin-2 receptor, respectively, are grown in culture medium (Ham F-12 with L-Glutamine) containing 300 μg/ml G418, 100 U/ml penicillin, 100 μg/ml streptomycin and 10% heat inactivated fetal calf serum (FCS). The cells are seeded at 20′000 cells/well into 384-well black clear bottom sterile plates (Greiner). The seeded plates are incubated overnight at 37° C. in 5% CO2.
(§3) Human orexin-A as an agonist is prepared as 1 mM stock solution in MeOH:water (1:1), diluted in HBSS containing 0.1% bovine serum albumin (BSA), NaHCO3: 0.375 g/l and 20 mM HEPES for use in the assay at a final concentration of 3 nM.
(§4) Antagonists are prepared as 10 mM stock solution in DMSO, then diluted in 384-well plates using DMSO followed by a transfer of the dilutions into in HBSS containing 0.1% bovine serum albumin (BSA), NaHCO3: 0.375 g/l and 20 mM HEPES. On the day of the assay, 50 μl of staining buffer (HBSS containing 1% FCS, 20 mM HEPES, NaHCO3: 0.375 g/l, 5 mM probenecid (Sigma) and 3 μM of the fluorescent calcium indicator fluo-4 AM (1 mM stock solution in DMSO, containing 10% pluronic) is added to each well. The 384-well cell-plates are incubated for 50 min at 37° C. in 5% CO2 followed by equilibration at rt for 30-120 min before measurement.
(§5) Within the Fluorescent Imaging Plate Reader (FLIPR Tetra, Molecular Devices), antagonists are added to the plate in a volume of 10 μl/well, incubated for 10 min and finally 10 μl/well of agonist is added. Fluorescence is measured for each well at 1 second intervals, and the height of each fluorescence peak is compared to the height of the fluorescence peak induced by 3 nM orexin-A with vehicle in place of antagonist. For each antagonist, the IC50 value (the concentration of compound needed to inhibit 50% of the agonistic response) is determined and normalized using the obtained IC50 value of a on-plate reference compound. Optimized conditions were achieved by adjustment of pipetting speed and cell splitting regime. The calculated IC50 values of the compounds may fluctuate depending on the daily cellular assay performance. Fluctuations of this kind are known to those skilled in the art.
For orientation: Calcium flux is commonly read through the fluorescence of an indicator in the cells.

Another assay has as its target T2, human orexin-2 receptor (Homo sapiens, UniProt O43614).
T2 construct: expressed in transfected cells; host or cells: CHO cells (G418 selection)
T2 sequence (O43614 1-444): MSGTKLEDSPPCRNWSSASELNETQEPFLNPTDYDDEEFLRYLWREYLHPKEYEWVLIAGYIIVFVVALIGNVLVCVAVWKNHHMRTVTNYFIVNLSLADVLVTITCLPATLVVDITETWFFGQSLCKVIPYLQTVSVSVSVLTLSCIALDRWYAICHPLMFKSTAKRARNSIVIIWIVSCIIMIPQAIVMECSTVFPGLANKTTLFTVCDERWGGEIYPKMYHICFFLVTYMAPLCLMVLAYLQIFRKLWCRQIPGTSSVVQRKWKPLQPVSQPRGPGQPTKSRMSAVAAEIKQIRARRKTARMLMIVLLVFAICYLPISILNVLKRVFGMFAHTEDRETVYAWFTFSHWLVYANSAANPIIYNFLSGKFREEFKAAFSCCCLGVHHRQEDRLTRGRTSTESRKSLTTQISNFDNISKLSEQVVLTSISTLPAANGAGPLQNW
Put plainly: FLIPR intracellular calcium assay, orexin receptor antagonistic activity (OX2). In kind it is cell-based. The settings on record: CHO cells expressing human orexin-2 receptor; agonist 3 nM orexin-A; normalized to on-plate reference; * geomean n = 5, *2 geomean n = 2. The protocol: as §1, §2, §3, §4, §5

The structures appear in SMILES notation.

As usually defined, the IC50 is the point on the concentration scale where inhibition reaches its midpoint. With `COc1cccc(OC)c1C1OCC(=O)N1Cc1ccc(F)c(Cl)c1` (stereo not shown) [Example 36, 3-(3-Chloro-4-fluoro-benzyl)-2-(2,6-dimethoxy-phenyl)-oxazolidin-4-one], the IC50 came out at 1340 nM at human orexin-1 receptor and 632 nM on human orexin-2 receptor.
For `COc1cccc(OC)c1C1OC(C)(C)C(=O)N1Cc1ccc(Oc2ncccn2)cc1` (stereo not shown) [Example 95, 2-(2,6-Dimethoxy-phenyl)-5,5-dimethyl-3-[4-(pyrimidin-2-yloxy)-benzyl]-oxazolidin-4-one] the same measures were 2990 nM and 7260 nM.
In the case of `COc1cccc(OC)c1C1OC(C)(C)C(=O)N1Cc1ccc(Oc2ccccc2)nc1` (stereo not shown) [Example 89, 2-(2,6-Dimethoxy-phenyl)-5,5-dimethyl-3-(6-phenoxy-pyridin-3-ylmethyl)-oxazolidin-4-one], the IC50 on human orexin-1 receptor was 139 nM; at human orexin-2 receptor it was 212 nM.
For `COc1cccc(OC)c1C1OCC(=O)N1Cc1c(C)cc(C)cc1C` (stereo not shown) [Example 41, 2-(2,6-Dimethoxy-phenyl)-3-(2,4,6-trimethyl-benzyl)-oxazolidin-4-one] the same measures were 542 nM and 681 nM.
Regarding `COc1cccc(OC)c1C1OCC(=O)N1Cc1cccc(OC(F)(F)F)c1` (stereo not shown) [Example 35, 2-(2,6-Dimethoxy-phenyl)-3-(3-trifluoromethoxy-benzyl)-oxazolidin-4-one], the IC50 at human orexin-1 receptor worked out at 2890 nM; on human orexin-2 receptor, 618 nM.
For the molecule `COc1cccc(OC)c1C1OCC(=O)N1Cc1c(C)cccc1C` (stereo not shown) [Example 44, 2-(2,6-Dimethoxy-phenyl)-3-(2,6-dimethyl-benzyl)-oxazolidin-4-one], the IC50 stood at 1760 nM at human orexin-1 receptor and 467 nM at human orexin-2 receptor.
Taken in the same sequence, the figures for `COc1cccc(OC)c1C1OC(C)(C)C(=O)N1Cc1ccc(OCC2CC2)cc1` (stereo not shown) [Example 78, 3-(4-Cyclopropylmethoxy-benzyl)-2-(2,6-dimethoxy-phenyl)-5,5-dimethyl-oxazolidin-4-one] were 472 nM and 620 nM.
Taken in the same sequence, the figures for `COc1cccc(OC)c1C1OCC(=O)N1Cc1cc(C(F)(F)F)cc(Cl)c1F` (stereo not shown) [Example 37, 3-(3-Chloro-2-fluoro-5-trifluoromethyl-benzyl)-2-(2,6-dimethoxy-phenyl)-oxazolidin-4-one] were 162 nM and 477 nM.
With `CCOc1cccc(OC)c1C1OC(C)(C)C(=O)N1Cc1ccc(Oc2ccccc2)cc1` (stereo not shown) [Example 97, 2-(2-Ethoxy-6-methoxy-phenyl)-5,5-dimethyl-3-(4-phenoxy-benzyl)-oxazolidin-4-one], the IC50 was determined as 25 nM on human orexin-1 receptor and 62 nM on human orexin-2 receptor.
Taken in the same sequence, the figures for `COc1cccc(OC)c1C1OC(C)(C)C(=O)N1Cc1ccc(OC(F)(F)F)cc1` (stereo not shown) [Example 61, 2-(2,6-Dimethoxy-phenyl)-5,5-dimethyl-3-(4-trifluoromethoxy-benzyl)-oxazolidin-4-one] were 29 nM and 160 nM.
For `CCOc1ccccc1C1OCC(=O)N1Cc1cc(Cl)ccc1Cl` (stereo not shown) [Example 46, 3-(2,5-Dichloro-benzyl)-2-(2-ethoxy-phenyl)-oxazolidin-4-one] the same measures were 788 nM and 1520 nM.
`COc1cccc(OC)c1C1OCC(=O)N1Cc1ccc(OC(F)F)cc1` (stereo not shown) [Example 49, 3-(4-Difluoromethoxy-benzyl)-2-(2,6-dimethoxy-phenyl)-oxazolidin-4-one]: the results for the IC50 on human orexin-1 receptor and at human orexin-2 receptor were 2990 nM and 113 nM, respectively.
In the case of `CCOc1ccccc1C1OCC(=O)N1Cc1cc(C(F)(F)F)ccc1Cl` (stereo not shown) [Example 12, 3-(2-Chloro-5-trifluoromethyl-benzyl)-2-(2-ethoxy-phenyl)-oxazolidin-4-one], the IC50 at human orexin-1 receptor was found to be 4040 nM; at human orexin-2 receptor it was 590 nM.
Turning to `COc1cccc(OC)c1C1O[C@H](C)C(=O)N1Cc1ccc(OC(F)(F)F)c(Cl)c1` (stereo partly drawn) [Example 56, 3-(3-Chloro-4-trifluoromethoxy-benzyl)-2-(2,6-dimethoxy-phenyl)-(R)-5-methyl-oxazolidin-4-one], the half-inhibitory concentration (IC50) at human orexin-1 receptor was 164 nM; at human orexin-2 receptor, 111 nM.
